Measurements reported in PubChem BioAssay (NCI).
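Briefly, cells in 96-well plates were exposed to five compound concentrations for 48 h, and endpoints were estimated by linear interpolation. TGI marks complete inhibition of growth.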

Legend:
Assay in all cases: DTP human tumour cell line panel, 48 h
[1] = system: TK-10 renal
[2] = system: OVCAR-3 ovarian
[3] = system: UACC-257 melanoma
[4] = system: KM12 colon
[5] = system: DLD-1 colon
[6] = system: SF-268 CNS
[7] = system: RXF-631 renal
[8] = system: HL-60(TB) leukemia
[9] = system: SK-MEL-28 melanoma
[10] = system: HCT-15 colon
[11] = system: NCI-H522 lung
[12] = system: SN12C renal
[13] = system: LXFL 529 NSCLC
[14] = system: U251 CNS
[15] = system: SNB-78 CNS
[16] = system: NCI-H23 lung
[17] = system: IGROV1 ovarian
[18] = system: A498 renal
[19] = system: HOP-92 NSCLC
[20] = system: DMS 114 small cell lung
[21] = system: SNB-75 CNS
[22] = system: HCC-2998 colon
[23] = system: MOLT-4 leukemia
[24] = system: A549 NSCLC
[25] = system: UACC-62 melanoma
[26] = system: HOP-62 NSCLC
[27] = system: EKVX NSCLC
[28] = system: SF-295 CNS
[29] = system: CCRF-CEM leukemia
[30] = system: OVCAR-8 ovarian
[31] = system: OVCAR-5 ovarian
[32] = system: SK-OV-3 ovarian
[33] = system: 786-0 renal
[34] = system: ACHN renal
[35] = system: K-562 leukemia
[36] = system: KM20L2 colon
[37] = system: CAKI-1 renal
[38] = system: NCI-H226 lung
[39] = system: HCT-116 colon
[40] = system: HT29 colon
[41] = system: M19-MEL melanoma
[42] = system: HOP-18 NSCLC
[43] = system: RPMI-8226 leukemia
[44] = system: MALME-3M melanoma
[45] = system: SR leukemia
[46] = system: OVCAR-4 ovarian
[47] = system: SNB-19 CNS
[48] = system: LOX IMVI melanoma
[49] = system: DMS 273 small cell lung
[50] = system: NCI-H460 lung
[51] = system: UO-31 renal
[52] = system: RXF 393 renal
[53] = system: M14 melanoma
[54] = system: COLO 205 colon
[55] = system: SW-620 colon
[56] = system: SF-539 CNS
[57] = system: SK-MEL-5 melanoma
[58] = system: XF 498 CNS
[59] = system: SK-MEL-2 melanoma

## COc1ccc(NC(=O)C(=O)Cc2ccc([N+](=O)[O-])c([N+](=O)[O-])c2CC(=O)C(=O)Nc2ccc(OC)cc2OC)c(OC)c1
[1]
  TGI: > 100 µM
[2]
  TGI: > 100 µM
[3]
  TGI: > 100 µM
[4]
  TGI: > 100 µM
[5]
  TGI: > 100 µM
[6]
  TGI: > 100 µM
[7]
  TGI: > 100 µM
[8]
  TGI: > 100 µM
[9]
  TGI: > 100 µM
[10]
  TGI: > 100 µM
[11]
  TGI: > 100 µM
[12]
  TGI: > 100 µM
[13]
  TGI: > 100 µM
[14]
  TGI: > 100 µM
[15]
  TGI: > 100 µM
[16]
  TGI: > 100 µM
[17]
  TGI: > 100 µM
[18]
  TGI: > 100 µM
[19]
  TGI: > 100 µM
[20]
  TGI: > 100 µM
[21]
  TGI: > 100 µM
[22]
  TGI: > 100 µM
[23]
  TGI: > 100 µM
[24]
  TGI: > 100 µM
[25]
  TGI: > 100 µM
[26]
  TGI: > 100 µM
[27]
  TGI: > 100 µM
[28]
  TGI: > 100 µM
[29]
  TGI: > 100 µM
[30]
  TGI: > 100 µM
[31]
  TGI: > 100 µM
[32]
  TGI: > 100 µM
[33]
  TGI: > 100 µM
[34]
  TGI: > 100 µM
[35]
  TGI: > 100 µM
[36]
  TGI: > 100 µM
[37]
  TGI: > 100 µM
[38]
  TGI: > 100 µM
[39]
  TGI: > 100 µM
[40]
  TGI: > 100 µM
[41]
  TGI: > 100 µM
[42]
  TGI: > 100 µM
[43]
  TGI: > 100 µM
[44]
  TGI: > 100 µM
[45]
  TGI: > 100 µM
[46]
  TGI: > 100 µM
[47]
  TGI: > 100 µM
[48]
  TGI: > 100 µM
[49]
  TGI: > 100 µM
[50]
  TGI: > 100 µM
[51]
  TGI: > 100 µM
[52]
  TGI: > 100 µM
[53]
  TGI: > 100 µM
[54]
  TGI: > 100 µM
[55]
  TGI: > 100 µM

## COc1ccc(C2=Nc3ccccc3N=C(SC)C2)cc1
[1]
  TGI: > 100 µM
[2]
  TGI: > 100 µM
[3]
  TGI: 65.7 µM
[4]
  TGI: > 100 µM
[5]
  TGI: > 100 µM
[6]
  TGI: > 100 µM
[7]
  TGI: > 100 µM
[8]
  TGI: 43 µM
[9]
  TGI: > 100 µM
[10]
  TGI: > 100 µM
[11]
  TGI: 63.2 µM
[12]
  TGI: > 100 µM
[13]
  TGI: > 100 µM
[14]
  TGI: > 100 µM
[15]
  TGI: > 100 µM
[16]
  TGI: > 100 µM
[17]
  TGI: > 100 µM
[18]
  TGI: > 100 µM
[19]
  TGI: 61.9 µM
[20]
  TGI: > 100 µM
[21]
  TGI: > 100 µM
[22]
  TGI: 74.4 µM
[23]
  TGI: > 100 µM
[24]
  TGI: > 100 µM
[25]
  TGI: > 100 µM
[26]
  TGI: > 100 µM
[56]
  TGI: > 100 µM
[57]
  TGI: > 100 µM
[27]
  TGI: > 100 µM
[28]
  TGI: > 100 µM
[29]
  TGI: 42 µM
[30]
  TGI: > 100 µM
[31]
  TGI: > 100 µM
[32]
  TGI: > 100 µM
[33]
  TGI: > 100 µM
[58]
  TGI: > 100 µM
[34]
  TGI: > 100 µM
[35]
  TGI: 53.2 µM
[36]
  TGI: > 100 µM
[37]
  TGI: > 100 µM
[38]
  TGI: > 100 µM
[39]
  TGI: > 100 µM
[40]
  TGI: > 100 µM
[41]
  TGI: > 100 µM
[42]
  TGI: > 100 µM
[44]
  TGI: > 100 µM
[45]
  TGI: > 100 µM
[46]
  TGI: > 100 µM
[47]
  TGI: > 100 µM
[48]
  TGI: 34.6 µM
[49]
  TGI: > 100 µM
[59]
  TGI: > 100 µM
[50]
  TGI: 71.9 µM
[51]
  TGI: > 100 µM
[52]
  TGI: > 100 µM
[53]
  TGI: > 100 µM
[54]
  TGI: > 100 µM
[55]
  TGI: 41 µM

## CCOC(=O)C1C(=O)CC(=O)C2CCCCC21 (centres undefined)
[1]
  TGI: > 100 µM
[2]
  TGI: > 100 µM
[3]
  TGI: > 100 µM
[4]
  TGI: > 100 µM
[5]
  TGI: > 100 µM
[6]
  TGI: > 100 µM
[7]
  TGI: > 100 µM
[8]
  TGI: > 100 µM
[9]
  TGI: > 100 µM
[10]
  TGI: > 100 µM
[11]
  TGI: > 100 µM
[12]
  TGI: > 100 µM
[13]
  TGI: > 100 µM
[14]
  TGI: > 100 µM
[15]
  TGI: > 100 µM
[16]
  TGI: > 100 µM
[17]
  TGI: > 100 µM
[18]
  TGI: > 100 µM
[19]
  TGI: > 100 µM
[20]
  TGI: > 100 µM
[21]
  TGI: > 100 µM
[23]
  TGI: > 100 µM
[24]
  TGI: > 100 µM
[25]
  TGI: > 100 µM
[26]
  TGI: > 100 µM
[56]
  TGI: > 100 µM
[57]
  TGI: > 100 µM
[27]
  TGI: > 100 µM
[28]
  TGI: > 100 µM
[29]
  TGI: > 100 µM
[30]
  TGI: > 100 µM
[31]
  TGI: > 100 µM
[32]
  TGI: > 100 µM
[33]
  TGI: > 100 µM
[58]
  TGI: > 100 µM
[34]
  TGI: > 100 µM
[35]
  TGI: > 100 µM
[37]
  TGI: > 100 µM
[39]
  TGI: > 100 µM
[43]
  TGI: > 100 µM
[44]
  TGI: > 100 µM
[46]
  TGI: > 100 µM
[47]
  TGI: > 100 µM
[48]
  TGI: > 100 µM
[49]
  TGI: > 100 µM
[59]
  TGI: > 100 µM
[50]
  TGI: > 100 µM
[51]
  TGI: > 100 µM
[52]
  TGI: > 100 µM
[53]
  TGI: > 100 µM
[54]
  TGI: > 100 µM
[55]
  TGI: > 100 µM

## COC1/C(=C\C(C)=O)c2ccccc2N1C(C)=O (centres undefined)
[2]
  TGI: > 100 µM
[3]
  TGI: > 100 µM
[4]
  TGI: > 100 µM
[5]
  TGI: > 100 µM
[7]
  TGI: > 100 µM
[8]
  TGI: > 100 µM
[9]
  TGI: > 100 µM
[10]
  TGI: > 100 µM
[12]
  TGI: > 100 µM
[13]
  TGI: > 100 µM
[14]
  TGI: > 100 µM
[16]
  TGI: > 100 µM
[17]
  TGI: > 100 µM
[18]
  TGI: > 100 µM
[19]
  TGI: > 100 µM
[21]
  TGI: > 100 µM
[22]
  TGI: > 100 µM
[23]
  TGI: > 100 µM
[24]
  TGI: > 100 µM
[25]
  TGI: > 100 µM
[26]
  TGI: > 100 µM
[56]
  TGI: > 100 µM
[27]
  TGI: > 100 µM
[28]
  TGI: > 100 µM
[29]
  TGI: > 100 µM
[30]
  TGI: > 100 µM
[32]
  TGI: > 100 µM
[33]
  TGI: > 100 µM
[58]
  TGI: > 100 µM
[34]
  TGI: > 100 µM
[35]
  TGI: > 100 µM
[36]
  TGI: > 100 µM
[37]
  TGI: > 100 µM
[39]
  TGI: > 100 µM
[40]
  TGI: > 100 µM
[41]
  TGI: > 100 µM
[42]
  TGI: > 100 µM
[43]
  TGI: > 100 µM
[45]
  TGI: > 100 µM
[46]
  TGI: > 100 µM
[47]
  TGI: > 100 µM
[49]
  TGI: > 100 µM
[59]
  TGI: > 100 µM
[50]
  TGI: > 100 µM
[51]
  TGI: > 100 µM
[52]
  TGI: > 100 µM
[53]
  TGI: > 100 µM
[54]
  TGI: > 100 µM
[55]
  TGI: > 100 µM
